# Measurements from patent US20070265289A1, “2-Aminopyrimidine Derivative” (priority 2004, published 2007).
# Counter-ions that a name gives are not always drawn.
# Biological target: T1, rat IKK2 (Rattus norvegicus, UniProt Q9QY78)
# T1 construct: ORF of rat IKK2 (GenBank AF115282) was cloned from a rat pancreas cDNA library; FLAG; made in house; host or cells: Sf9 insect cells
# T1 sequence (Q9QY78 1-757): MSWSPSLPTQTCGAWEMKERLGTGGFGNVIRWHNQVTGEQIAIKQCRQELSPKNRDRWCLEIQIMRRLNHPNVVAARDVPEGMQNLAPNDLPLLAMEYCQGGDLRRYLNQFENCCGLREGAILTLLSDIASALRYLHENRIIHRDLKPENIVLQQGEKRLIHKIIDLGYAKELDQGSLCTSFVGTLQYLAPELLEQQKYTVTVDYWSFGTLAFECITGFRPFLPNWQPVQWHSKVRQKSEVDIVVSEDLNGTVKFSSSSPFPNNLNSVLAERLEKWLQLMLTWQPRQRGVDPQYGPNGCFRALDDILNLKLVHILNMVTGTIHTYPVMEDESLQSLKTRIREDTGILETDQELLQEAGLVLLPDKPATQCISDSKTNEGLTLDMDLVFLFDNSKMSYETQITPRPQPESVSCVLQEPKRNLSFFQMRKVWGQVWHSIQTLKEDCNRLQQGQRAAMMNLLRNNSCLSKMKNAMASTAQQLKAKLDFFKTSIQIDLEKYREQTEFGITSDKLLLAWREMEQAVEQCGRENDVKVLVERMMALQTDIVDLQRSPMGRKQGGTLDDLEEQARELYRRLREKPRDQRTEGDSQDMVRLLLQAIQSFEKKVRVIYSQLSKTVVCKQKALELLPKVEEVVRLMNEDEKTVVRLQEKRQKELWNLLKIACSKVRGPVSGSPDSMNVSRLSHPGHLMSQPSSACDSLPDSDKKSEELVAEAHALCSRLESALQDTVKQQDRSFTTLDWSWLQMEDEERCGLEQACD
# Assay: Evaluation of rat IKK2 enzyme inhibition
# Type: biochemical
# Settings: 0.5 μM ATP, probit analysis; read-out: IC50, rat IKK2 enzyme activity-inhibitory effect
# Procedure: (1) Evaluation of Rat IKK2 Enzyme Inhibition:
# ORF of rat IKK2 (GenBank AF115282) was cloned from a rat pancreas cDNA library, and with a FLAG-tag attached thereto, it was expressed in an Sf9 cell line. The cells were dissolved in a cytolytic solution (50 mM Tris-HCl pH 7.5, 0.15M NaCl, 1% NP-40, 10% glycerol, 1 mM EDTA, 1 mM EGTA pH 7.5, 1 mM Na3VO4, 5 mM p-nitrophenylphosphate, 10 mM O-glycerophosphate, 1 mM DTT, 1 mM PMSF, 10 μg/ml leupeptin, 10 μg/ml aprotinin (by Sigma)) to prepare a large amount of an cell extract, which was then purified on an anti-FLAG M2 antibody (by Sigma). This experimental operation was carried out in accordance with gene manipulation experiment manuals such as known methods (Sambrook, J. et al, Molecular Cloning-A Laboratory Manual, Cold Spring Harbor laboratory, NY, 1989) or the instructions attached to the reagents. The purified rat IKK2 was stored in an enzyme preservative (20 mM Tris-HCl pH 7.5, 10% glycerol, 12.5 mM β-glycerophosphate, 0.5 mM EDTA, 0.5 mM EGTA, 0.05% Brij35, 1 mM DTT, 1 mM PMSF (by Sigma)) at −80° C.
# The purified rat IKK2, 1× enzymatic reaction buffer (20 mM Tris-HCl pH 7.5, 12.5 mM O-glycerophosphate, 20 mM MgCl2, 0.1 mM DTT), 0.01% BSA (by Sigma), 0.5 μM ATP, 0.2 μM biotinated substrate peptide (18th to 49th amino acid residues of rat I-kappa B alpha (GenBank Q63746)) and a test compound dissolved in DMSO were added to a 384-well plate (catalogue No. 3677, by Corning) to be 10 μl in total therein, and left at room temperature for 90 minutes. Next, […] of a reaction stopper (100 mM Hepse pH 8, 0.01% BSA, 0.8 M KF, 50 mM EDTA pH 8, 1% Triton X-100, europium cryptate-labeled anti-phosphorylation I-kappa B alpha-antibody (by Santa Cru), streptoavidin-labeled XL665 (by Nihon Schering)) was added thereto, kept warmed for 30 minutes, and then assayed with DISCOVERY (by Perkin-Elmer). The rat IKK2 enzyme activity-inhibitory effect of the tested compound was obtained according to the following formula. Every dose was tested independently three times. Inhibition (%) by Test Compound=((mean value with rat IKK2 but not with test compound)−(mean value with both test compound and rat IKK2))/((mean value with rat IKK2 but not with test compound)−(mean value not with rat IKK2))×100.
row,SMILES,IC50
1,"CCc1ccc(O)c(-c2cc(C3CCCNC3)nc(N)n2)c1 (single isomer, unassigned; (-)) [Example 78, (−)-2-(2-amino-6-piperidin-3-ylpyrimidin-4-yl)-4-ethylphenol dihydrochloride]",≤ 500 nM
2,"Nc1nc(-c2ccccc2O)cc(C2CCCNC2)n1 (stereo not shown) [Example 1, 2-(2-amino-6-piperidin-3-ylpyrimidin-4-yl)phenol dihydrochloride]",≤ 500 nM
3,"CCOc1cccc(O)c1-c1cc(C2CCCNC2)nc(N)n1 (stereo not shown) [Example 5, 2-(2-amino-6-piperidin-3-ylpyrimidin-4-yl)-3-ethoxyphenol dihydrochloride]",≤ 500 nM
4,"Nc1nc(-c2c(O)cccc2O)cc(C2CCCNC2)n1 (stereo not shown) [Example 10, 2-(2-amino-6-piperidin-3-ylpyrimidin-4-yl)benzene-1,3-diol dihydrochloride]",≤ 500 nM
5,Nc1nc(-c2cc(F)ccc2O)cc(C2CCCNC2)n1 (stereo not shown) [Example 12],≤ 500 nM
6,Nc1nc(-c2ccc(F)cc2O)cc(C2CCCNC2)n1 (stereo not shown) [Example 13],≤ 500 nM
7,Nc1nc(-c2cc(Cl)ccc2O)cc(C2CCCNC2)n1 (stereo not shown) [Example 14],≤ 500 nM
8,Cc1cc(O)c(-c2cc(C3CCCNC3)nc(N)n2)cc1Cl (stereo not shown) [Example 19],≤ 500 nM
9,COc1ccc(O)c(-c2cc(C3CCCNC3)nc(N)n2)c1 (stereo not shown) [Example 26],≤ 500 nM
10,CSc1ccc(O)c(-c2cc(C3CCCNC3)nc(N)n2)c1 (stereo not shown) [Example 28],≤ 500 nM
11,Cc1cc(O)c(-c2cc(C3CCCNC3)nc(N)n2)c(OCC2CC2)c1 (stereo not shown) [Example 40],≤ 500 nM
12,COc1cccc(O)c1-c1cc(C2CCCNC2)nc(N)n1 (stereo not shown) [Example 44],≤ 500 nM
13,COCCOc1cccc(O)c1-c1cc(C2CCCNC2)nc(N)n1 (stereo not shown) [Example 46],≤ 500 nM
14,Nc1nc(-c2c(O)cccc2OCc2ccccc2)cc(C2CCCNC2)n1 (stereo not shown) [Example 47],≤ 500 nM
15,Nc1nc(-c2c(O)cccc2OCCC2CCNCC2)cc(C2CCCNC2)n1 (stereo not shown) [Example 48],≤ 500 nM
16,CC1(COc2cccc(O)c2-c2cc(C3CCCNC3)nc(N)n2)CC1 (stereo not shown) [Example 99],≤ 500 nM
17,CC(C)OCCOc1cccc(O)c1-c1cc(C2CCCNC2)nc(N)n1 (stereo not shown) [Example 100],≤ 500 nM
18,CC(C)COCCOc1cccc(O)c1-c1cc(C2CCCNC2)nc(N)n1 (stereo not shown) [Example 101],≤ 500 nM
19,Nc1nc(-c2c(O)cccc2OCc2ccc(Br)cc2)cc(C2CCCNC2)n1 (stereo not shown) [Example 108],≤ 500 nM
20,CC1CCC(Oc2cccc(O)c2-c2cc(C3CCCNC3)nc(N)n2)C1 (stereo not shown) [Example 126],≤ 500 nM
21,Cc1ccc(O)c(-c2cc(C3CNCC(C)C3)nc(N)n2)c1 (stereo not shown) [Example 136],≤ 500 nM
22,Cc1ccc(O)c(-c2cc(C3CCC(C)NC3)nc(N)n2)c1 (stereo not shown) [Example 137],≤ 500 nM
23,Nc1nc(-c2c(O)cccc2OCC2CC2)cc(C2CCNCC2)n1 [Example 145],≤ 500 nM
24,CC(C)COc1cccc(O)c1-c1cc(C2CCNCC2)nc(N)n1 [Example 146],≤ 500 nM
25,Nc1nc(-c2c(O)cccc2OCC(=O)c2ccccc2)cc(C2CCNCC2)n1 [Example 147],≤ 500 nM
